This is an account of results in PMC11337105, “Identification of 2-(N-aryl-1,2,3-triazol-4-yl) quinoline derivatives as antitubercular agents endowed with InhA inhibitory activity” (Frontiers in Chemistry, 2024).

For orientation: IC50 means the concentration at which inhibition is half-maximal. One may read the melting point as the temperature, or range, at which the solid turns liquid.

The test system of one data set is M. bovis BCG. In words: microbe, parasite or virus in culture. As to conditions: Mycobacterium tuberculosis variant bovis BCG, read-out: MIC M. bovis BCG. Format: cell-based.
The subject of a further data set is M. abscessus. The data set is described as follows: Antimycobacterial MIC / primary screening, MABA. The conditions noted are these: Mycobacteroides abscessus, read-out: MIC M. abscessus. Format: cell-based.
For another data set, the target named is MTB InhA (Mycobacterium tuberculosis, UniProt P9WGR1). In words: InhA inhibition endpoint assay. The class given is biochemical. As to conditions: read-out: IC50 against InhA.
Chain of MTB InhA (P9WGR1 whole entry, looked up): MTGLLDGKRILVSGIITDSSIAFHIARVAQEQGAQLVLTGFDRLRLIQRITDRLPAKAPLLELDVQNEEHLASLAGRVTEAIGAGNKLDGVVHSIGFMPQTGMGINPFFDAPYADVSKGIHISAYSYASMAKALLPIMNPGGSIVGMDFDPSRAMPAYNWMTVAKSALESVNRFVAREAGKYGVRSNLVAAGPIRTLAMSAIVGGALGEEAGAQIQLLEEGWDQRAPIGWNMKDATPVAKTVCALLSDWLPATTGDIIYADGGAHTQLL
In the next data set the test system is L929 cells. The data set is described as follows: Cytotoxicity, MTT protocol (ISO 10993-5:2009(E)). The class given is cell-based. The conditions noted are these: ratio to MIC against M. tuberculosis. On the procedure:
This evaluation adhered precisely to international standards (ISO 10993-5:2009(E)), employing L929 cells and the MTT protocol ([Bekier et al., 2021]). The determination of the half maximal inhibitory concentration (IC50) values was carried out for 12 out of the 13 compounds tested, considering the occurrence of derivative precipitation in the growth medium for L929 cells (Table 1). […] For two compounds (5g and 5i), the discriminatory index (IC50/MIC) was identified at the level of 20.

In another data set the test system is M. tuberculosis H37Rv. The data set is described as follows: Antimycobacterial MIC / primary screening, MABA (microplate alamar blue assay). Format: cell-based. As to conditions: Mycobacterium tuberculosis. On the technique in general: The colour change of resazurin is a common sign of viable cells or microbes.
A further data set deals with MTB. The conditions noted are these: cited from earlier work.

Molecules are shown by their SMILES. Values after ≈ are worked out from the molar mass of the structure shown. Where only a bound is given, the exact number is not on record here.

The molecule `Cc1c(-c2cc(C(=O)O)c3cc(Cl)ccc3n2)nnn1-c1ccccc1` [Compound 5i, 6-Chloro-2-(5-methyl-1-phenyl-1H-1,2,3-triazol-4-yl)benzo [b]pyridine-4-carboxylic acid] had a melting point greater than 300 °C. In the data set with M. bovis BCG, the MIC is less than 125 mg/L. Also, in the data set with M. abscessus, the MIC is greater than 125 mg/L. The IC50 at MTB InhA was 11.8 ± 0.49 µM. In the data set with L929 cells, the “IC50-L929/MIC Mtb (cytotoxicity / discriminatory index)” value worked out at 20. In the data set with M. tuberculosis H37Rv, this molecule registered an MIC of 15 mg/L (≈ 41.1 µM).
In the case of `CC(C)c1ccc2nc(-c3ccc4ccc5ccccc5c4c3)cc(C(=O)O)c2c1` [Compound II], the “MIC against MTB” value in the data set with MTB (ref Quimque et al., 2023) is given as “around 16 μM”.
For `O=C(N/N=C/c1cn(-c2ccc(Cl)cc2)nn1)c1ccncc1` [compound VI], in the data set on MTB (MTB H37Rv, ref Boechat et al., 2011), the “MIC, MTB H37Rv strain” value is 0.62 mg/L (≈ 1.9 µM).
On to `Cc1c(-c2cc(C(=O)O)c3ccccc3n2)nnn1-c1ccc(Br)cc1` [Compound 5g, 2-(1-(4-Bromophenyl)-5-methyl-1H-1,2,3-triazol-4-yl)benzo [b]pyridine-4-carboxylic acid], for which the melting point is 228 to 229 °C. Besides, the MIC in the data set with M. bovis BCG was less than 125 mg/L. Besides, the MIC in the data set with M. abscessus is greater than 125 mg/L. In addition, the IC50 at MTB InhA was 4.13 ± 0.17 µM. In addition, the “IC50-L929/MIC Mtb (cytotoxicity / discriminatory index)” value in the data set on L929 cells came to 20. The molecule further returned an MIC against M. tuberculosis H37Rv of 15 mg/L (≈ 36.7 µM).
For the molecule `Fc1cccc(-c2nc3ccccc3n2Cc2cn(-c3ccc(F)cc3F)nn2)c1` [compound VII], in the data set with MTB (ref Gill et al., 2008), the “MIC, tuberculosis” value was 6.25 mg/L (≈ 15.4 µM).
Take `Cc1c(-c2cc(C(=O)O)c3cc(Cl)ccc3n2)nnn1-c1ccc(Cl)cc1` [Compound 5n, 6-Chloro-2-(1-(4-chlorophenyl)-5-methyl-1H-1,2,3-triazol-4-yl)benzo [b]pyridine-4-carboxylic acid]: the MIC was less than 125 mg/L in the data set with M. bovis BCG, greater than 125 mg/L in the data set on M. abscessus and 12.5 mg/L (≈ 31.3 µM) in the data set on M. tuberculosis H37Rv. Also, the IC50 at MTB InhA was 0.72 ± 0.03 µM. The “IC50-L929/MIC Mtb (cytotoxicity / discriminatory index)” value in the data set with L929 cells amounted to 16.
